Laboratory results as given in patent publication US20240400972A1, “Antifouling Composition and Process for Production Thereof” (priority 2015, published 2024).

Columns and labels:
[1] = system: extracellular proteases of PF-11 and NTC secretomes; format: biochemical; details: 10 mM inhibitor, relatively to non-treated control
Method: Briefly, 12% SDS-polyacrylamide gels (Laemmli 1970) were co-polymerized with 1% casein or gelatin at 4° C. Non reducing loading buffer (62.5 mM Tris, 2% SDS, 10% glycerol, 0.001% bromophenol blue) was added to secretome samples prior to loading. Electrophoresis was performed at 4° C. and 100 V until the bromophenol dye reached the bottom of the gel. After electrophoresis, gels were rinsed two times in 2.5% (v/v) Triton X-100, 30 min each, for SDS removal, followed by three washes, 5 min each, in deionized water. Gels were then incubated in activation buffer (0.1M Tris-HCl, 0.01M CaCl2, pH 8), at 37° C. for enzyme renaturation and subsequent proteolytic activity. The gels were washed three times, 5 min each, in deonized water prior to incubation for 1 h in Coomassie Brilliant Blue R-250. […] Protease activity was visible as clear bands on a blue background. […] Protease inhibition by phenyl methyl sulfonyl fluoride (PMSF) and EDTA was determined as described by Bertolini and Rohovec (Bertolini and Rohovec 1992).
Further evaluations of the type of proteases present in the extracellular protease producers were performed by selective inhibition of serine proteases by PMSF and of metallo-proteases by EDTA.

[2] = system: sea lice larvae and copepodids; details: 70 ppm; cited from earlier work
[3] = system: sea lice larvae and copepodids; assay: Sea lice larvae and copepodids viability bioassay; format: in vivo, Lepeophtheirus salmonis salmonis; details: 70 ppm, positive control
Method: The assay consisted on incubating sea lice (Lepeophtheirus salmonis salmonis) larvae and copepodids with PF-11 secretome in order to evaluate the viability of the larvae and copepodids compared to a blank control. Sodium hypocholorite (NaoCl), known to kill the larvae within 40 min at 70 ppm, was used as a positive control. Larvae were obtained by sedating salmon sea lice with Benzocain, harvesting egg strings with tweezers, and transferring the strings to a water bath placed in an incubator. Inside the incubator, the water was continuously changed throughout the incubation period. When the larvae were developed, they were removed from the incubator and used in the bioassay. Copepodids were developed from egg strings from sea lice as described for larvae. Seawater containing louse larvae and copepodids was placed in a petri dish and PF-11 secretome was added to the final pretended concentration. Larvae and copepodids in seawater with no added compounds were also used for comparison. The positive control was NaOCl at 70 ppm. The larvae and copepodids viability was checked over time. An evaluation of larvae viability was performed and compared to the viability in the blank controls. The viability in the pure seawater control and the medium blank control was monitored and compared and remained the same throughout the experiment.

Strain PF-11 = format: cell-based, Pseudomonas putida; details: CLSI standards, EUCAST resistance breakpoints
Method: MICS (Minimum Inhibitory Concentration) was determined by agar dilution and disk diffusion according to CLSI standards (CLSI, M02-A10; CLSI, M100-S21). Briefly, LA plates were prepared supplemented with serial dilutions of the antibiotic to be tested to determine the MIC. The lowest antibiotic concentration preventing growth of the strain is considered the MIC value. The strain Escherichia coli ATCC 25922 was used as control strain, as recommended.

Structure (SMILES)	susceptibility of strain PF-11 (Strain PF-11)	further results
O=C(O)CN(CCN(CC(=O)O)CC(=O)O)CC(=O)O [EDTA]	–	inhibition of proteolytic activity of PF-11 and NTC secretomes [1]: strongly inhibited
[Na+].[O-]Cl [NaOCl, Sodium hypocholorite]	–	time to kill the larvae [2]: ≤ 40 min; required time to become 100% effective [3]: 20 min
O=S(=O)(F)Cc1ccccc1 [PMSF, phenyl methyl sulfonyl fluoride]	–	inhibition of proteolytic activity of PF-11 and NTC secretomes [1]: significantly lower inhibitory effects
CC1(C)S[C@@H]2[C@H](NC(=O)[C@H](N)c3ccc(O)cc3)C(=O)N2[C@H]1C(=O)O [amoxycillin]	resistant	–
CC1(C)S[C@@H]2[C@H](NC(=O)[C@H](N)c3ccccc3)C(=O)N2[C@H]1C(=O)O [ampicilin]	resistant	–
C[C@H]1[C@H](NC(=O)/C(=N\OC(C)(C)C(=O)O)c2csc(N)n2)C(=O)N1S(=O)(=O)O [aztreonam]	resistant	–
CO/N=C(\C(=O)N[C@@H]1C(=O)N2C(C(=O)O)=C(COC(C)=O)CS[C@H]12)c1csc(N)n1 [cefotaxime]	resistant	–
CO[C@@]1(NC(=O)Cc2cccs2)C(=O)N2C(C(=O)O)=C(COC(N)=O)CS[C@@H]21 [cefoxitine]	resistant	–
CC(C)(O/N=C(\C(=O)N[C@@H]1C(=O)N2C(C(=O)[O-])=C(C[n+]3ccccc3)CS[C@H]12)c1csc(N)n1)C(=O)O [ceftazidime]	resistant	–
